Source: US5824315A, “Binding affinity of antigenic peptides for MHC molecules” (Anergen, Inc., priority 1996, dated 1998)

These molecules were tested on HLA-DR2. Conditions: pH 6.
Method: In order to compare the binding of various MBP peptides to DR2, purified DR2 at a concentration of 20 μg/ml was incubated with 50-fold molar excess of Bt-MBP peptides for 72 hours at varying pH, ranging from pH 5-10 binding buffer at 37° C. […] Monoclonal antibody against HLA-DR2 at a concentration of 20 μg/ml and BSA-biotin (with 0.014-1.80 pmoles (0.117-15 ng), were coated in 96-well microtiter plates (Nunc poly-Sorb, Baxter) overnight at 4° C. Plates were blocked with 1% fish gelatin. Prepared HLA-DR2-biotin peptide complexes were applied to the wells in duplicates ranging from 12.5 ng-200 ng (0.21-3.32 pmoles) in appropriate dilution buffers and incubated for 2 hours at room temperature. The wells were washed three times with PBS containing 0.01% Tween-20 to remove unbound peptide. Bound biotinylated peptides were detected colorimetrically using alkaline phosphatase conjugated streptavidin and p-nitrophenyl phosphate (disodium) in 0.1M diethnolamine as a substrate. Wells were read at 405 nm in microliter plate reader (Molecular Devices). The percent of DR2 with bound peptide was calculated using standard BSA-biotin (eight biotin molecules per BSA). Purified HLA-DR2 used in this study contains a mixture of DRB5*0101 and DRB1*1501 beta chains.
In the first experiment, the binding of MBP(84-102) peptide to purified DR2 was compared with MBP(83-102)Y83 peptide at various pH.

Row | Compound | percent of DR2 occupied with bound peptide [%]
1 | CC[C@H](C)[C@H](NC(=O)[C@H](CC(N)=O)NC(=O)[C@H](CCCCN)NC(=O)[C@H](Cc1ccccc1)NC(=O)[C@H](Cc1ccccc1)NC(=O)[C@H](Cc1c[nH]cn1)NC(=O)[C@@H](NC(=O)[C@@H](NC(=O)[C@@H]1CCCN1C(=O)[C@H](CC(N)=O)NC(=O)[C@H](CCC(=O)O)NC(=O)[C@H](CC(=O)O)NC(=O)[C@H](CC(=O)O)NC(=O)CCCC[C@@H]1SC[C@@H]2NC(=O)N[C@@H]21)C(C)C)C(C)C)C(=O)N[C@H](C(=O)N[C@H](C(=O)N1CCC[C@H]1C(=O)N[C@@H](CCCNC(=N)N)C(=O)N[C@H](C(=O)N1CCC[C@H]1C(=O)N1CCC[C@H]1C(N)=O)[C@@H](C)O)[C@@H](C)O)C(C)C [MBP(83-102)D83, Bt-DDENPVVHFF KNIVTPRTPP-NH2] | 55
2 | CC[C@H](C)[C@H](NC(=O)[C@H](CC(N)=O)NC(=O)[C@H](CCCCN)NC(=O)[C@H](Cc1ccccc1)NC(=O)[C@H](Cc1ccccc1)NC(=O)[C@H](Cc1c[nH]cn1)NC(=O)[C@@H](NC(=O)[C@@H](NC(=O)[C@@H]1CCCN1C(=O)[C@H](CC(N)=O)NC(=O)[C@H](CCC(=O)O)NC(=O)[C@H](CC(=O)O)NC(=O)[C@H](Cc1ccccc1)NC(=O)CCCC[C@@H]1SC[C@@H]2NC(=O)N[C@@H]21)C(C)C)C(C)C)C(=O)N[C@H](C(=O)N[C@H](C(=O)N1CCC[C@H]1C(=O)N[C@@H](CCCNC(=N)N)C(=O)N[C@H](C(=O)N1CCC[C@H]1C(=O)N1CCC[C@H]1C(N)=O)[C@@H](C)O)[C@@H](C)O)C(C)C [MBP(83-102)F83, Bt-FDENPVVHFF KNIVTPRTPP-NH2] | 12
3 | CC[C@H](C)[C@H](NC(=O)[C@H](CC(N)=O)NC(=O)[C@H](CCCCN)NC(=O)[C@H](Cc1ccccc1)NC(=O)[C@H](Cc1ccccc1)NC(=O)[C@H](Cc1c[nH]cn1)NC(=O)[C@@H](NC(=O)[C@@H](NC(=O)[C@@H]1CCCN1C(=O)[C@H](CC(N)=O)NC(=O)[C@H](CCC(=O)O)NC(=O)[C@H](CC(=O)O)NC(=O)[C@H](CCCCN)NC(=O)CCCC[C@@H]1SC[C@@H]2NC(=O)N[C@@H]21)C(C)C)C(C)C)C(=O)N[C@H](C(=O)N[C@H](C(=O)N1CCC[C@H]1C(=O)N[C@@H](CCCNC(=N)N)C(=O)N[C@H](C(=O)N1CCC[C@H]1C(=O)N1CCC[C@H]1C(N)=O)[C@@H](C)O)[C@@H](C)O)C(C)C [MBP(83-102)K83, Bt-KDENPVVHFF KNIVTPRTPP-NH2] | 75
4 | CC[C@H](C)[C@H](NC(=O)[C@H](CC(N)=O)NC(=O)[C@H](CCCCN)NC(=O)[C@H](Cc1ccccc1)NC(=O)[C@H](Cc1ccccc1)NC(=O)[C@H](Cc1c[nH]cn1)NC(=O)[C@@H](NC(=O)[C@@H](NC(=O)[C@@H]1CCCN1C(=O)[C@H](CC(N)=O)NC(=O)[C@H](CCC(=O)O)NC(=O)[C@H](CC(=O)O)NC(=O)[C@H](CCC(N)=O)NC(=O)CCCC[C@@H]1SC[C@@H]2NC(=O)N[C@@H]21)C(C)C)C(C)C)C(=O)N[C@H](C(=O)N[C@H](C(=O)N1CCC[C@H]1C(=O)N[C@@H](CCCNC(=N)N)C(=O)N[C@H](C(=O)N1CCC[C@H]1C(=O)N1CCC[C@H]1C(N)=O)[C@@H](C)O)[C@@H](C)O)C(C)C [MBP(83-102)Q83, Bt-QDENPVVHFF KNIVTPRTPP-NH2] | 40

The next lines start with the values.

Row | percent of DR2 occupied with bound peptide [%] | Compound
5 | 100 | CC[C@H](C)[C@H](NC(=O)[C@H](CC(N)=O)NC(=O)[C@H](CCCCN)NC(=O)[C@H](Cc1ccccc1)NC(=O)[C@H](Cc1ccccc1)NC(=O)[C@H](Cc1c[nH]cn1)NC(=O)[C@@H](NC(=O)[C@@H](NC(=O)[C@@H]1CCCN1C(=O)[C@H](CC(N)=O)NC(=O)[C@H](CCC(=O)O)NC(=O)[C@H](CC(=O)O)NC(=O)[C@H](C)NC(=O)CCCC[C@@H]1SC[C@@H]2NC(=O)N[C@@H]21)C(C)C)C(C)C)C(=O)N[C@H](C(=O)N[C@H](C(=O)N1CCC[C@H]1C(=O)N[C@@H](CCCNC(=N)N)C(=O)N[C@H](C(=O)N1CCC[C@H]1C(=O)N1CCC[C@H]1C(N)=O)[C@@H](C)O)[C@@H](C)O)C(C)C [MBP(83-102)A83, Bt-ADENPVVHFF KNIVTPRTPP-NH2]
6 | 45 | CC[C@H](C)[C@H](NC(=O)[C@H](CC(N)=O)NC(=O)[C@H](CCCCN)NC(=O)[C@H](Cc1ccccc1)NC(=O)[C@H](Cc1ccccc1)NC(=O)[C@H](Cc1c[nH]cn1)NC(=O)[C@@H](NC(=O)[C@@H](NC(=O)[C@@H]1CCCN1C(=O)[C@H](CC(N)=O)NC(=O)[C@H](CCC(=O)O)NC(=O)[C@H](CC(=O)O)NC(=O)CCCC[C@@H]1SC[C@@H]2NC(=O)N[C@@H]21)C(C)C)C(C)C)C(=O)N[C@H](C(=O)N[C@H](C(=O)N1CCC[C@H]1C(=O)N[C@@H](CCCNC(=N)N)C(=O)N[C@H](C(=O)N1CCC[C@H]1C(=O)N1CCC[C@H]1C(N)=O)[C@@H](C)O)[C@@H](C)O)C(C)C [MBP(84-102), Bt-DENPVVHFFK NIVTPRTPP-NH2, reference compound]
